Assay results published in PubChem BioAssay (NCI).
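Exposure lasted 48 hours, with cells grown in 96-well plates and compounds tested at five concentrations. GI50 = concentration required for 50% inhibition of growth. TGI: concentration producing complete growth inhibition.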

Experiments:
Assay in all cases: NCI tumour cell line growth inhibition, 48 h
786-0 renal = test system: 786-0 renal
A498 renal = test system: A498 renal
A549 NSCLC = test system: A549 NSCLC
ACHN renal = test system: ACHN renal
BT-549 breast = test system: BT-549 breast
CAKI-1 renal = test system: CAKI-1 renal
CCRF-CEM leukemia = test system: CCRF-CEM leukemia
COLO 205 colon = test system: COLO 205 colon
DU-145 prostate = test system: DU-145 prostate
EKVX NSCLC = test system: EKVX NSCLC
HCC-2998 colon = test system: HCC-2998 colon
HCT-116 colon = test system: HCT-116 colon
HCT-15 colon = test system: HCT-15 colon
HL-60(TB) leukemia = test system: HL-60(TB) leukemia
HOP-62 NSCLC = test system: HOP-62 NSCLC
HOP-92 NSCLC = test system: HOP-92 NSCLC
HS 578T breast = test system: HS 578T breast
HT29 colon = test system: HT29 colon
IGROV1 ovarian = test system: IGROV1 ovarian
K-562 leukemia = test system: K-562 leukemia
KM12 colon = test system: KM12 colon
LOX IMVI melanoma = test system: LOX IMVI melanoma
M14 melanoma = test system: M14 melanoma
MALME-3M melanoma = test system: MALME-3M melanoma
MCF7 breast = test system: MCF7 breast
MDA-MB-231 breast = test system: MDA-MB-231 breast
MDA-MB-435 = test system: MDA-MB-435
MDA-MB-468 breast = test system: MDA-MB-468 breast
MOLT-4 leukemia = test system: MOLT-4 leukemia
NCI-H226 lung = test system: NCI-H226 lung
NCI-H23 lung = test system: NCI-H23 lung
NCI-H460 lung = test system: NCI-H460 lung
NCI-H522 lung = test system: NCI-H522 lung
NCI/ADR-RES ovarian = test system: NCI/ADR-RES ovarian
OVCAR-3 ovarian = test system: OVCAR-3 ovarian
OVCAR-4 ovarian = test system: OVCAR-4 ovarian
OVCAR-5 ovarian = test system: OVCAR-5 ovarian
OVCAR-8 ovarian = test system: OVCAR-8 ovarian
PC-3 prostate = test system: PC-3 prostate
RPMI-8226 leukemia = test system: RPMI-8226 leukemia
RXF 393 renal = test system: RXF 393 renal
SF-268 CNS = test system: SF-268 CNS
SF-295 CNS = test system: SF-295 CNS
SF-539 CNS = test system: SF-539 CNS
SK-MEL-2 melanoma = test system: SK-MEL-2 melanoma
SK-MEL-28 melanoma = test system: SK-MEL-28 melanoma
SK-MEL-5 melanoma = test system: SK-MEL-5 melanoma
SK-OV-3 ovarian = test system: SK-OV-3 ovarian
SN12C renal = test system: SN12C renal
SNB-19 CNS = test system: SNB-19 CNS
SNB-75 CNS = test system: SNB-75 CNS
SW-620 colon = test system: SW-620 colon
T-47D breast = test system: T-47D breast
TK-10 renal = test system: TK-10 renal
U251 CNS = test system: U251 CNS
UACC-257 melanoma = test system: UACC-257 melanoma
UACC-62 melanoma = test system: UACC-62 melanoma
UO-31 renal = test system: UO-31 renal

How did the GI50 (786-0 renal) turn out when `C=C1CC[C@@H]2[C@]3(C)COC(c4ccccc4)O[C@@H]3CC[C@@]2(C)[C@@H]1C/C=C1/C(=O)OCC1OC(C)=O` (stereo partly specified) was run?
The GI50 was 12.5 µM.

What about the TGI (786-0 renal) of the same molecule?
The TGI was 25.4 µM.

What about the GI50 (A498 renal) of the same molecule?
Its GI50 is 19.9 µM.

What about the TGI (A498 renal) of the same molecule?
The TGI was 35.7 µM.

What about the GI50 (A549 NSCLC) of the same molecule?
Its GI50 is 15.4 µM.

What about the TGI (A549 NSCLC) of the same molecule?
Its TGI is 32.3 µM.

What about the GI50 (ACHN renal) of the same molecule?
Its GI50 is 8.95 µM.

What about the TGI (ACHN renal) of the same molecule?
Its TGI is 21 µM.

And the GI50 (BT-549 breast)?
The GI50 was 2.67 µM.

What about the TGI (BT-549 breast) of the same molecule?
Its TGI is 10 µM.

And the GI50 (CAKI-1 renal)?
Its GI50 is 12.2 µM.

And the TGI (CAKI-1 renal)?
Its TGI is 24.7 µM.

What about the GI50 (CCRF-CEM leukemia) of the same molecule?
The GI50 was 2.54 µM.

What about the TGI (CCRF-CEM leukemia) of the same molecule?
The TGI was 10.9 µM.

And the GI50 (COLO 205 colon)?
The GI50 was 17.5 µM.

And the TGI (COLO 205 colon)?
Its TGI is 36.1 µM.

And the GI50 (DU-145 prostate)?
Its GI50 is 13.6 µM.

What about the TGI (DU-145 prostate) of the same molecule?
Its TGI is 27.2 µM.

And the GI50 (EKVX NSCLC)?
The GI50 was 10.7 µM.

What about the TGI (EKVX NSCLC) of the same molecule?
The TGI was 22.6 µM.

And the GI50 (HCC-2998 colon)?
Its GI50 is 13.9 µM.

What about the TGI (HCC-2998 colon) of the same molecule?
The TGI was 26.9 µM.

And the GI50 (HCT-116 colon)?
Its GI50 is 2.25 µM.

And the TGI (HCT-116 colon)?
The TGI was 5.78 µM.

And the GI50 (HCT-15 colon)?
The GI50 was 4.3 µM.

What about the TGI (HCT-15 colon) of the same molecule?
Its TGI is 16.3 µM.

What about the GI50 (HL-60(TB) leukemia) of the same molecule?
The GI50 was 7.37 µM.

And the TGI (HL-60(TB) leukemia)?
The TGI was 39.2 µM.

What about the GI50 (HOP-62 NSCLC) of the same molecule?
Its GI50 is 16 µM.

What about the TGI (HOP-62 NSCLC) of the same molecule?
The TGI was 31.2 µM.

What about the GI50 (HOP-92 NSCLC) of the same molecule?
The GI50 was 10.4 µM.

What about the TGI (HOP-92 NSCLC) of the same molecule?
Its TGI is 23.4 µM.

And the GI50 (HS 578T breast)?
The GI50 was 20.5 µM.

What about the TGI (HS 578T breast) of the same molecule?
Its TGI is 67.4 µM.

And the GI50 (HT29 colon)?
Its GI50 is 3.63 µM.

What about the TGI (HT29 colon) of the same molecule?
Its TGI is 13.7 µM.

What about the GI50 (IGROV1 ovarian) of the same molecule?
Its GI50 is 14.4 µM.

What about the TGI (IGROV1 ovarian) of the same molecule?
Its TGI is 27.8 µM.

What about the GI50 (K-562 leukemia) of the same molecule?
The GI50 was 3.72 µM.

What about the TGI (K-562 leukemia) of the same molecule?
Its TGI is over 100 µM.

What about the GI50 (KM12 colon) of the same molecule?
Its GI50 is 10.6 µM.

And the TGI (KM12 colon)?
The TGI was 25.7 µM.

And the GI50 (LOX IMVI melanoma)?
The GI50 was 1.8 µM.

What about the TGI (LOX IMVI melanoma) of the same molecule?
The TGI was 3.61 µM.

And the GI50 (M14 melanoma)?
The GI50 was 7.44 µM.

What about the TGI (M14 melanoma) of the same molecule?
Its TGI is 20.9 µM.

What about the GI50 (MALME-3M melanoma) of the same molecule?
Its GI50 is 17.1 µM.

And the TGI (MALME-3M melanoma)?
Its TGI is 33.1 µM.

What about the GI50 (MCF7 breast) of the same molecule?
Its GI50 is 3.34 µM.

What about the TGI (MCF7 breast) of the same molecule?
Its TGI is 15.5 µM.

And the GI50 (MDA-MB-231 breast)?
Its GI50 is 10.9 µM.

What about the TGI (MDA-MB-231 breast) of the same molecule?
Its TGI is 23 µM.

And the GI50 (MDA-MB-435)?
Its GI50 is 10.4 µM.

What about the TGI (MDA-MB-435) of the same molecule?
Its TGI is 22.5 µM.

And the GI50 (MDA-MB-468 breast)?
Its GI50 is 5.05 µM.

What about the TGI (MDA-MB-468 breast) of the same molecule?
Its TGI is 19 µM.

And the GI50 (MOLT-4 leukemia)?
Its GI50 is 4.43 µM.

And the TGI (MOLT-4 leukemia)?
Its TGI is 28.6 µM.

And the GI50 (NCI-H226 lung)?
The GI50 was 4.89 µM.

What about the TGI (NCI-H226 lung) of the same molecule?
The TGI was 23.1 µM.

And the GI50 (NCI-H23 lung)?
The GI50 was 15.1 µM.

And the TGI (NCI-H23 lung)?
The TGI was 29.1 µM.

And the GI50 (NCI-H460 lung)?
The GI50 was 18.9 µM.

What about the TGI (NCI-H460 lung) of the same molecule?
The TGI was 51.8 µM.

And the GI50 (NCI-H522 lung)?
The GI50 was 10.2 µM.

And the TGI (NCI-H522 lung)?
Its TGI is 22.8 µM.

What about the GI50 (NCI/ADR-RES ovarian) of the same molecule?
Its GI50 is 3.28 µM.

What about the TGI (NCI/ADR-RES ovarian) of the same molecule?
Its TGI is 11.1 µM.

And the GI50 (OVCAR-3 ovarian)?
The GI50 was 2.74 µM.

And the TGI (OVCAR-3 ovarian)?
The TGI was 11.9 µM.

And the GI50 (OVCAR-4 ovarian)?
Its GI50 is 10.9 µM.

And the TGI (OVCAR-4 ovarian)?
The TGI was 25.2 µM.

And the GI50 (OVCAR-5 ovarian)?
Its GI50 is 13.4 µM.

And the TGI (OVCAR-5 ovarian)?
Its TGI is 26.2 µM.

And the GI50 (OVCAR-8 ovarian)?
The GI50 was 3.23 µM.

What about the TGI (OVCAR-8 ovarian) of the same molecule?
Its TGI is 12.3 µM.

What about the GI50 (PC-3 prostate) of the same molecule?
Its GI50 is 5.4 µM.

And the TGI (PC-3 prostate)?
Its TGI is 20.4 µM.

And the GI50 (RPMI-8226 leukemia)?
Its GI50 is 2.7 µM.

What about the TGI (RPMI-8226 leukemia) of the same molecule?
The TGI was 7.85 µM.

What about the GI50 (RXF 393 renal) of the same molecule?
Its GI50 is 4.13 µM.

And the TGI (RXF 393 renal)?
Its TGI is 17 µM.

And the GI50 (SF-268 CNS)?
The GI50 was 15.7 µM.

And the TGI (SF-268 CNS)?
Its TGI is 34.3 µM.

What about the GI50 (SF-295 CNS) of the same molecule?
The GI50 was 13.3 µM.

And the TGI (SF-295 CNS)?
The TGI was 26.1 µM.

And the GI50 (SF-539 CNS)?
The GI50 was 4.12 µM.

And the TGI (SF-539 CNS)?
The TGI was 14.8 µM.

And the GI50 (SK-MEL-2 melanoma)?
Its GI50 is 11.1 µM.

And the TGI (SK-MEL-2 melanoma)?
Its TGI is 24.8 µM.

And the GI50 (SK-MEL-28 melanoma)?
The GI50 was 13.9 µM.

And the TGI (SK-MEL-28 melanoma)?
The TGI was 26.9 µM.

And the GI50 (SK-MEL-5 melanoma)?
The GI50 was 12.2 µM.

What about the TGI (SK-MEL-5 melanoma) of the same molecule?
The TGI was 24.8 µM.

And the GI50 (SK-OV-3 ovarian)?
Its GI50 is 19.3 µM.

And the TGI (SK-OV-3 ovarian)?
Its TGI is 34.4 µM.

What about the GI50 (SN12C renal) of the same molecule?
The GI50 was 5.64 µM.

What about the TGI (SN12C renal) of the same molecule?
The TGI was 18.9 µM.

And the GI50 (SNB-19 CNS)?
The GI50 was 15.1 µM.

What about the TGI (SNB-19 CNS) of the same molecule?
The TGI was 28.4 µM.

And the GI50 (SNB-75 CNS)?
The GI50 was 1.77 µM.

What about the TGI (SNB-75 CNS) of the same molecule?
Its TGI is 19.3 µM.

What about the GI50 (SW-620 colon) of the same molecule?
The GI50 was 3.04 µM.

And the TGI (SW-620 colon)?
Its TGI is 10.3 µM.

What about the GI50 (T-47D breast) of the same molecule?
Its GI50 is 10.6 µM.

What about the TGI (T-47D breast) of the same molecule?
Its TGI is 27 µM.

And the GI50 (TK-10 renal)?
Its GI50 is 19 µM.

What about the TGI (TK-10 renal) of the same molecule?
Its TGI is 33.4 µM.

What about the GI50 (U251 CNS) of the same molecule?
Its GI50 is 10.4 µM.

What about the TGI (U251 CNS) of the same molecule?
Its TGI is 24.5 µM.

And the GI50 (UACC-257 melanoma)?
The GI50 was 14.3 µM.

And the TGI (UACC-257 melanoma)?
Its TGI is 28.7 µM.

What about the GI50 (UACC-62 melanoma) of the same molecule?
Its GI50 is 7.28 µM.

And the TGI (UACC-62 melanoma)?
Its TGI is 20.3 µM.

What about the GI50 (UO-31 renal) of the same molecule?
Its GI50 is 10.4 µM.

And the TGI (UO-31 renal)?
Its TGI is 22.1 µM.
